Test [1] concerns FZD5. Description: Immunoblot of FZD5 (immature and mature forms) with lysosome/proteasome inhibitors. To be noted: HEK293T cells; for TMEM79-induced degradation of immature FZD5: TMEM79 overexpressed; for levels of immature and mature forms of FZD5: absence or presence of TMEM79. It is filed as cell-based, human. The method, then:
Cell culture, immunofluorescence, RNA interference and dual luciferase assay. HEK293T cells (ATCC #CRL-11268) and its derivatives were maintained in DMEM supplemented with 10% FBS, penicillin, and streptomycin. ZRKO (ZNRF3 and RNF43 double knockout) cell line was a gift from F. Cong. The FZD null cell line (Fz1-10 knockout) was a gift from B. Vanhollebeke. For immunofluorescence, HEK293T cells were grown on poly-L-lysine-coated glass coverslips. Cells were transfected with Snap-FZD5 and after 24 hours washed with PBS and fixed with 4% paraformaldehyde for 10 min at room temperature. The cells were labeled with 1 μM SNAP-Surface® 488 (BioLabs) for 15 min at room temperature. To visualize endogenous TMEM79, PDI, TGN46 and EEA1, cells were permeabilized with 0.2% Triton X-100 in PBS for 5 min, blocked with 10% normal goat serum and then incubated with respective antibodies for 1 hour at room temperature followed by incubation with secondary antibodies (Alexa Fluor 594 goat anti-rabbit immunoglobulin and Alexa Fluor 488 goat anti-mouse immunoglobulin, Invitrogen). Cells were mounted in Prolong Diamond Antifade Mountant with DAPI (Thermofisher Scientific) and imaged using a Zeiss LSM700 confocal microscope. siRNA transfection was done using Lipofectamine RNAiMAX (Thermofisher Scientific, #13778075). Duplex siRNAs targeting TMEM79 and ZNRF3 were purchased from Sigma. The sequences are as follows: TMEM79-1, 5-[…]dTdT-3 (SEQ ID NO: 19), TMEM79-2, 5-CCAUGAGUUCCCGCCUGAUdTdT-3 (SEQ ID NO: 20). ZNRF3, 5-[…]dTdT-3 (SEQ ID NO: 21). For Top-Flash reporter assay, cells were transduced sequentially with Supertopflash (7TFP, Addgene) and EF1α-Renilla lentiviruses. Cells were plated in 24 well plates and transfected the following day in triplicate using FuGENE HD (Promega, #E2312). Dual luciferase reporter assays were performed using Dual-Luciferase® Reporter Assay System (Promega, #E1960) according to manufacturer's instruction. Representative results are shown from one of three (or more) independent experiments. Immunoblotting, cell surface protein labeling and immunoprecipitation. Total cell lysates in NP40 lysis buffer (50 mM Tris, pH 7.5, 150 mM NaCl, 1 mM EDTA, 1% NP40, 10% glycerol, 10 mM NaF, and protease inhibitor cocktail, pH=7.4) were prepared by gentle rotating at 4° C., followed by centrifugation at top speed for 10 min at 4° C. Samples were run on a SDS-PAGE and transferred to Immobilon-P membrane. To isolate the cytoplasmic fraction of β-catenin, cells were incubated with 0.015% digitonin (in PBS supplemented protease inhibitor cocktail) by gentle rotating at 4° C. for 10 min. Indirect immunochemistry using a secondary antibody conjugated with horseradish peroxidase was visualized using ECL reagents on LAS-4000 imager (FujiFilm). Cell surface proteins were biotinylated using EZ-LinkTMSulfo-NHS—SS-Biotin (Thermo Fisher Scientific) according to manufacturer's protocol. Biotinylated proteins were enriched by Pierce® Streptavidin agarose resins. For immunoprecipitation, transfected HEK293T cells were lysed in NP40 lysis buffer. Cell lysates were incubated with antibody conjugated Agarose beads (Pierce™ Anti-c-Myc Agarose, #20168; Pierce™ Anti-HA Agarose, #26181; Anti-Flag M2 affinity gel, Sigma, A2220; Anti-V5 Agarose Affinity Gel, Sigma, A7345) at 4° C. over night. Beads were washed with lysis buffer 5 times and proteins were eluted in 2× sample buffer.

Test [2] deals with ma/ma mice. Nature of the test: Topical LGK974 cream on Tmem79 ma/ma mice, AD phenotypes. The test is classed as in vivo, mouse. To be noted: topical cream twice daily, dose to be determined empirically. The source says:
PORCUPINE (PORCN) is an ER acyl-transferase specifically required for biogenesis and secretion of all WNT proteins. A diverse group of small molecules, referred to as IWP2, LGK974, and C59, each binds to and inhibits PORCN, thereby blocking WNT production. LGK974 and C59 are in phase I clinical trials for cancers that rely on autocrine or local WNT production (Proffitt, K. D., et al., Cancer Res, 2013, 73 (2): p. 502-7; Jiang, X., et al., Proc Natl Acad Sci USA, 2013. 110 (31): p. 12649-54). […] 111 (6): p. 2325-30; Apelian, H. M. C., NJ), Coffin-beach, David (Kendall Park, NJ), Huq, Abu S. (Plainsboro, NJ), Pharmaceutical composition of florfenicol, in U.S. Pat. No. 5,082,862, S. Corporation, January 1992; Malook, S. U. N., GB5), Boon, Peter F. G. (Horsham, GB2), Morgan, James P. (Navan, IE), Method of reducing the swelling or pain associated with antibiotics compositions, in U.S. Pat. No. 4,772,460, L. Bimeda Research and Development, September 1988.). […]
ma ma mice in C57BL/6 have been used as a reliable model for human AD and will be housed under the SPF (specific pathogen-free) conditions at BCH, and analyzed at 2, 4, and 8 weeks for skin phenotypes as described (Sasaki, T., et al., J Allergy Clin Immunol, 132 (5): p. 1111-1120 e4, 2013; Saunders, S. P., et al., J Allergy Clin Immunol, 132 (5): p. 1121-9, 2013). […]

Test [3] relates to Wnt/β-catenin signaling. Description: Top-Flash dual luciferase reporter assay. The test is classed as cell-based, human. To be noted: HEK293T cells. The method, then: (§1) Cell culture, immunofluorescence, RNA interference and dual luciferase assay. HEK293T cells (ATCC #CRL-11268) and its derivatives were maintained in DMEM supplemented with 10% FBS, penicillin, and streptomycin. ZRKO (ZNRF3 and RNF43 double knockout) cell line was a gift from F. Cong. The FZD null cell line (Fz1-10 knockout) was a gift from B. Vanhollebeke. For immunofluorescence, HEK293T cells were grown on poly-L-lysine-coated glass coverslips. Cells were transfected with Snap-FZD5 and after 24 hours washed with PBS and fixed with 4% paraformaldehyde for 10 min at room temperature. The cells were labeled with 1 μM SNAP-Surface® 488 (BioLabs) for 15 min at room temperature. To visualize endogenous TMEM79, PDI, TGN46 and EEA1, cells were permeabilized with 0.2% Triton X-100 in PBS for 5 min, blocked with 10% normal goat serum and then incubated with respective antibodies for 1 hour at room temperature followed by incubation with secondary antibodies (Alexa Fluor 594 goat anti-rabbit immunoglobulin and Alexa Fluor 488 goat anti-mouse immunoglobulin, Invitrogen). Cells were mounted in Prolong Diamond Antifade Mountant with DAPI (Thermofisher Scientific) and imaged using a Zeiss LSM700 confocal microscope. siRNA transfection was done using Lipofectamine RNAiMAX (Thermofisher Scientific, #13778075). Duplex siRNAs targeting TMEM79 and ZNRF3 were purchased from Sigma. […]

Test [4] relates to β-catenin. Nature of the test: Immunoblot of cytosolic β-catenin after siRNA depletion of TMEM79 or ZNRF3. It is filed as cell-based, human. To be noted: HEK293T cells. On the procedure:
as §1

In test [5] the test system is phosphorylated LRP6 and phosphorylated DVL. Nature of the test: Immunoblot of phosphorylated LRP6 and DVL2 in T79KO and ZRKO cells. The test is classed as cell-based, human. The method, then:
as §1

“Also recorded” adds a separate entry of the source. Peptide text beside a SMILES is read from it. * marks the point of attachment. Cbz = O=C(OCc1ccccc1)*

As for `CO/C1=C\C(C)=C\[C@@H](C)[C@@H](O)[C@@H](C)C/C(C)=C/C=C/[C@H](OC)[C@@H]([C@@H](C)[C@@H](O)[C@H](C)[C@@]2(O)C[C@@H](O)[C@H](C)[C@@H](C(C)C)O2)OC1=O` [Bafilomycin A1], in test [1], the “TMEM79-induced lysosomal degradation of FZD5” value is recorded as “prevented”; the “TMEM79-induced degradation of immature FZD5” value was “inhibited”; the “levels of immature and mature forms of FZD5” value (shortened to “levels … of FZD5”) is “elevated levels”. Further, in test [1] (listed as Baf A1), the “TMEM79-induced degradation of immature FZD5” value is given as “blocked”. Also, in test [1] (listed as BAF A1), the “levels … of FZD5” value is “increased”.

Consider `Cc1cc(-c2ncc(CC(=O)Nc3ccc(-c4cnccn4)cn3)cc2C)ccn1` [LG974], for which the “AD phenotypes of ma mice” value in test [2] is on record as “ameliorated”.

As to `CC(C)C[C@@H](C=O)NC(=O)[C@H](CC(C)C)NC(=O)[C@H](CC(C)C)NC(=O)OCc1ccccc1` [MG132] (Cbz-Leu-Leu-Leu-aldehyde), in test [1], the “levels … of FZD5” value is “did not affect”.

As to `Cc1ccc2nc(NC(=O)CSc3nc4c(c(=O)n3-c3ccccc3)SCC4)sc2c1` [IWP-2], the “TOP-Flash reporter induction by USP8C” value in test [3] (USP8C transfected) was “abolished; also recorded: inhibited”. For the same compound, the “elevated levels of TOP-Flash caused by depletion of TMEM79 or ZNRF3” value in test [3] (siRNA depletion) is “abolished; also recorded: suppressed”. Further, in test [4], the “elevated levels of β-catenin protein caused by depletion of TMEM79 or ZNRF3” value is on record as “prevented; also recorded: suppressed”. Also, the “elevated levels of phosphorylated LRP6 and phosphorylated DVL” value in test [5] was “inhibited; also recorded: suppressed”.

(Values after patent US12534762B2, “Treating atopic dermatitis by targeting the WNT pathway” (Children's Medical Center Corporation, priority 2018, dated 2026).)
